The text below walks through data of patent US4812567A, “Polycyclic spiroimides with psychotropic activity” (American Home Products Corporation, priority 1986, dated 1989).

Where a name gives a salt, the structure may show the parent alone.

This experiment has as its system conditioned avoidance (shelf-jump response). Put plainly: conditioned avoidance (shelf-jump response) test in rats. In kind it is in vivo, Male CD rats. The text has this: A test designed to determine the potential antipsychotic activity of the compounds of this invention is the conditioned avoidance (shelf-jump response) test. Male CD rats (Charles River) maintained at approximately 400-450 gm body weight are used. […] A moveable wall, controlled by a motor, determines whether the rat has access to the shelf at any time during the experiment. The experimental chamber also contains a house light and sonalert. A steel grid floor in the main chamber is wired for presentation of electric shock. Each trial consists of a […]-second warning tone (conditioned stimulus), continuing for an additional fifteen seconds accompanied by electric shock, (unconditioned stimulus). A response (jumping onto the exposed shelf of the upper chamber) occurring during the initial fifteen-second warning tone is considered an avoidance response, while a response occurring during shock delivery is considered an escape response. Trials are presented on a fixed interval schedule of one minute. The session consists of thirty-six trials. Animals are run twice weekly with control sessions always preceding a drug run, and with at least one day intervening. Compounds are administered i.p. or p.o. at appropriate pre-treatment times to a minimum of five rats at each dose level over a range of doses. […] Response counts are summed over all subjects at a given dose. […] This number is expressed as a percentage of the total trials. […] Potential antipsychotic compounds suppress avoidance responding and increase escape responding.

As for `O=C1CC2(CCC3CCC2C3)C(=O)N1CCCCN1CCN(c2ncccn2)CC1` (centres unmarked) [Example 1, 1'-[4-[4-(2-Pyrimidinyl)-1-piperazinyl]butyl]spiro[bicyclo[3.2.1]octane-2,3'-pyrrolidine]-2',5'-dione, dihydrochloride, hemihydrate], the Active at (i.p.) worked out at 40 mg/kg.
The compound `O=C1CC2(CCCC2)CC(=O)N1CCCCN1CCN(c2cncc(Cl)n2)CC1` [Example 4, 8-[4-[4-(6-Chloro-2-pyrazinyl)-1-piperazinyl]butyl]-8-azaspiro[4,5]decane-7,9-dione dihydrochloride, hydrate] came in with an Active at (orally administered) of 40 mg/kg.
`O=C1CC2(CCCC2)CC(=O)N1CCCCN1CCN(c2nccnc2Cl)CC1` [Example 5, 8-[4-[4-(3-Chloro-2-pyrazinyl)-1-piperazinyl]butyl]-8-azaspiro[4,5]decane-7,9-dione dihydrochloride, hemihydrate]: the Active at (i.p.) came to 40 mg/kg.
Take `O=C1CC2(CCCC2)CC(=O)N1CCCCN1CCN(c2ccc(Cl)nn2)CC1` [Example 6, 8-[4-[4-(6-Chloro-3-pyridazinyl]-1-piperazinyl]-8-azaspiro[4,5]decane-7,9-dione dihydrochloride]: the Active at (i.p.) was 40 mg/kg.
Regarding “Octahydro-1'-[4-[4-(2-Pyrimidinyl)-1-piperazinyl]butyl]spiro[4,7-methano-5H-indene-5,3'-pyrrolidine]-2',5'-dione, dihydrochloride [Example 2]”, the Active at (i.p.) was 40 mg/kg.
